{
  "source": "patent US20080305536A1",
  "about": "“Method for Culturing Microorganisms” (priority 2005, published 2008)",
  "system": "NCIMB 11955",
  "details": "USM, 1% glucose, 60° C., 250 rpm, grown for 36 hours; flasks with 0, 1, 2, 3 or 4% ethanol; FIG. 1",
  "experimental": "Ethanol tolerance of a wild-type organism (NCIMB 11955) was tested in order to determine the starting point. The organism was grown overnight (LB agar plate, 60° C.) and a colony used to inoculate an overnight culture (100 mL USM, 1% glucose, 60° C., 250 rpm). This culture was then used to inoculate a triplicate series of flasks containing 0, 1, 2, 3, or 4% ethanol which were then grown for 36 hours before the growth was measured (50 mL USM, 1% glucose, 60° C., 250 rpm).",
  "data": [
    {"smiles": "CCO", "note": "[ethanol]", "values": [
      {"measurement": "ethanol concentration tolerated (growth measured)", "value": "≤ 4", "unit": "%"}
    ]}
  ]
}
